From patent publication US11674140B2, “Compositions and methods for treating facioscapulohumeral dystrophy” (THE CHILDREN'S MEDICAL CENTER CORPORATION, priority 2017, dated 2023)
Entries after “also recorded” stand apart in the source; their conditions may differ.

Key:
DUX4-injected zebrafish = DUX4-injected zebrafish model of FSHD; assay type: in vivo; details: drug 24 hr post-injection; day 7; compared to DUX4-injected no drug control group
Text: FSHD has proven to be a difficult disease to model in animals given the primate-specific origins of DUX4, its sporadic activation and mosaic expression, as well as the complex epigenetic components associated with the disease. Our published DUX4 zebrafish model was the first to recapitulate the muscle-eye-ear combination of phenotypes described in human FSHD (FIGS. 1N-A, 1N-B, 1N-C). […] These established DUX4 models of FSHD provide for functional follow-up experiments for candidate genes identified in CRISPR screens.
Drugs that show efficacy in vitro can be tested in a zebrafish model of FSHD. […] After injecting DUX4 into zebrafish, the test subjects were then treated with the four drug compounds 24 hr post-injection. Injected fish were categorized into affected or unaffected groups based on whole-body phenotype (FIG. 18A).

[1] = test system: FSHD biomarkers MBDL3L3, TRIM42 and ZSCAN4; assay: Quantitative real-time PCR of FSHD biomarkers in patient myotubes; assay type: cell-based, human
Method: One common way to test potential therapies for FSHD is to measure a reduction in FSHD biomarker genes (FIG. 16B). […] Briefly, patient primary myoblasts (17A and 16A) were placed in differentiation media. At day four, drug compounds were added, and myotubes were harvested 24 hours later. RNA extraction and cDNA synthesis was performed. Quantitative real-time PCR for FSHD biomarkers levels of MBDL3L3, TRIM42 and ZSCAN4 was performed. Results indicated a significant reduction in biomarker levels for the majority of drugs tested.

DUX4 inducible cell line = assay: Cell death assay: caspase fluorescence (FITC) in DUX4 inducible cell line after doxycycline; assay type: cell-based; details: after 48 hours of doxycycline treatment
Method: FIG. 17A includes a series of micrographs. Fluorescence from labeled caspase is visible (fluorescein isothiocynate (FITC)) in a DUX4 inducible cell line after 48 hours of doxy cy cline treatment.
Cell death assay were then used to validate single knock-outs cell lines (FIGS. 17A-17C).

DUX4 toxicity = assay: Caspase 3/7 activity assay (luciferase read-out) of DUX4-induced cell death; assay type: cell-based, human
Text: FIGS. 14A and 14B illustrate a method for assaying cell death. FIG. 14A is a schematic diagram showing a method for assaying cell death by measuring Caspase 3/7 activity using a luciferase read-out.
FIG. 14B presents graphical data generated from the doxycycline-inducible assay.
The DUX4 gene encodes a transcription factor whose expression is rare, but extremely toxic. DUX4 transcription factor controls more than 100 early developmental genes. Misexpression of DUX4 is hypothesized to induce inappropriate expression of downstream genes to cause disease pathogenesis. […] Non-manifesting carriers of FSHD alleles who are found to express DUX4, point to the existence of genetic modifiers that may act to suppress DUX4 toxicity. The clinical, histopathological and molecular evidence for asymptomatic/non-manifesting carriers of FSHD is provided at FIGS. 1A-1F. As reported herein below, a genome-wide CRISPR loss-of-function library was used to identify genes that modulate DUX4 induced toxicity and act as genetic modifiers of FSHD (FIG. 1M). This powerful resource has enabled the assessment of the impact of all loss-of-function gene edits across the entire genome. This approach permitted the isolation of genes that influence survivability of DUX4 toxicity. These genes were validated in vitro by generation of individual knock-out lines, using a Caspase-3/7 assay to quantify reduced DUX4-induced apoptosis, and using inhibitor compounds to mimic gene knock-outs. These genes are also being evaluated in vivo.
The abundance of sgRNAs in each of the LOF cell lines was measured (FIG. 12). Each sgRNA is specific to the gene. Single gene knock-outs were generated using a lenti-CRISPR plasmid. […] To determine whether the results observed with Hif1a knockout could be recapitulated using an inhibitor of Hif1a, experiments with small compound inhibitors were carried out (FIGS. 15A, 15B, 16C, 16D). […] Herbimycin A is a benzoquinone drug (used for anti-cancer treatment) that binds and inhibits heat shock protein 90 (HSP90) chaperone (tyrosine kinase inhibitor) and is known to deplete dephosphorylated HIF1a. […]

SMILES | percentage of affected fish (whole-body phenotype) (DUX4-injected zebrafish) | efficacy in patient cell lines [1] | caspase fluorescence (DUX4 inducible cell line) | suppression of DUX4 toxicity (DUX4 toxicity; 20 uM) | efficacy in vitro measured by caspase 3/7 activity (DUX4 toxicity) | FSHD biomarker levels (MBDL3L3, TRIM42, ZSCAN4) ([1]; patient primary myoblasts 16A and 17A, drug added at day four of differentiation, harvested 24 hours later)
CO[C@H]1[C@@H](OC)C[C@H](C)[C@@H](OC)C2=CC(=O)C=C(NC(=O)/C(C)=C/C=C\[C@H](OC)[C@@H](OC(N)=O)/C(C)=C/[C@@H]1C)C2=O [Herbimycin A] | significantly reduced; also recorded: significantly decreased percentage of affected fish | efficacy | reduced caspase fluorescence | good suppression of DUX4 toxicity | showed efficacy in vitro | 
COC(=O)c1ccc(O)c(NC(=O)COc2ccc(C34CC5CC(CC(C5)C3)C4)cc2)c1 [Hif1a inhibitor] |  |  |  |  |  | Dose-response reduction of biomarkers
O=c1cc(N2CCOCC2)oc2c(-c3ccccc3)cccc12 [LY294002, Ly294002] |  | efficacy | reduced caspase fluorescence |  | showed efficacy in vitro | 
